Broadly, the MIC is the smallest concentration in the dilution series that meets the test's criterion for growth inhibition.

Assay [1] deals with Staphylococcus aureus. The assay can be described thus: Antibacterial activity against Staphylococcus aureus MTCC 3160 assessed as zone of inhibition at 100 ug/well measured after 24 hrs by agar well diffusion method. The settings on record: MTCC 3160, 24 h, read-out: DIZ. Type of assay: functional.
Assay [2] concerns Klebsiella pneumoniae. Description: Antibacterial activity against Klebsiella pneumoniae MTCC 3384 measured after 24 hrs by NCCL protocol based broth dilution method. It counts as functional. A general note: Broth dilution looks for growth in wells or tubes with falling amounts of substance.
For assay [3], the system named is Staphylococcus aureus. The assay can be described thus: Antibacterial activity against Staphylococcus aureus MTCC 3160 measured after 24 hrs by NCCL protocol based broth dilution method. It counts as functional.
The subject of assay [4] is Salmonella paratyphi. Description: Antibacterial activity against Salmonella paratyphi assessed as zone of inhibition at 100 ug/well measured after 24 hrs by agar well diffusion method. Type of assay: functional, Salmonella enterica subsp. enterica serovar Paratyphi A. The settings on record: Salmonella enterica, read-out: DIZ. Background: In agar diffusion tests the substance spreads into inoculated agar from a disc or well.

The subject of assay [5] is Aspergillus fumigatus. Description: Antifungal activity against Aspergillus fumigatus MTCC 343 measured after 48 hrs by NCCL protocol based broth dilution method. It counts as functional.
In assay [6] the test system is Salmonella typhi. Description: Antibacterial activity against Salmonella typhi assessed as zone of inhibition at 100 ug/well measured after 24 hrs by agar well diffusion method. The settings on record: Salmonella enterica, read-out: DIZ. Type of assay: functional, Salmonella enterica subsp. enterica serovar Typhi.
In assay [7] the test system is Aspergillus fumigatus. The assay can be described thus: Antifungal activity against Aspergillus fumigatus MTCC 343 assessed as zone of inhibition at 100 ug/well measured after 48 hrs by agar well diffusion method. It counts as functional. The settings on record: MTCC 343, 48 h, read-out: DIZ.
Assay [8] concerns Micrococcus luteus. The assay can be described thus: Antibacterial activity against Micrococcus luteus MTCC 106 assessed as zone of inhibition at 100 ug/well measured after 24 hrs by agar well diffusion method. The settings on record: MTCC 106, 24 h, read-out: DIZ. It counts as functional.
Assay [9] deals with Klebsiella pneumoniae. The assay can be described thus: Antibacterial activity against Klebsiella pneumoniae MTCC 3384 assessed as zone of inhibition at 100 ug/well measured after 24 hrs by agar well diffusion method. The settings on record: MTCC 3384, 24 h, read-out: DIZ. Type of assay: functional.
For assay [10], the system named is Candida albicans. Description: Antifungal activity against Candida albicans MTCC 3017 measured after 48 hrs by NCCL protocol based broth dilution method. Type of assay: functional.
The test system of assay [11] is Micrococcus luteus. Description: Antibacterial activity against Micrococcus luteus MTCC 106 measured after 24 hrs by NCCL protocol based broth dilution method. It counts as functional.
For assay [12], the system named is Streptococcus mutans. Description: Antibacterial activity against Streptococcus mutans MTCC 497 assessed as zone of inhibition at 100 ug/well measured after 24 hrs by agar well diffusion method. It counts as functional. The settings on record: MTCC 497, 24 h, read-out: DIZ.
The subject of assay [13] is Candida albicans. The assay can be described thus: Antifungal activity against Candida albicans MTCC 3017 assessed as zone of inhibition at 100 ug/well measured after 48 hrs by agar well diffusion method. It counts as functional. The settings on record: MTCC 3017, 48 h, read-out: DIZ.
Assay [14] relates to Salmonella paratyphi. The assay can be described thus: Antibacterial activity against Salmonella paratyphi measured after 24 hrs by NCCL protocol based broth dilution method. It counts as functional, Salmonella enterica subsp. enterica serovar Paratyphi A.
The subject of assay [15] is Streptococcus mutans. The assay can be described thus: Antibacterial activity against Streptococcus mutans MTCC 497 measured after 24 hrs by NCCL protocol based broth dilution method. It counts as functional.
The test system of assay [16] is Salmonella typhi. Description: Antibacterial activity against Salmonella typhi measured after 24 hrs by NCCL protocol based broth dilution method. Type of assay: functional, Salmonella enterica subsp. enterica serovar Typhi.
Setting [17] is: Salmonella enterica subsp. enterica serovar Paratyphi A.
Setting [18] is: Salmonella enterica subsp. enterica serovar Typhi.

In brackets after ≈: the same amount, converted by molar mass. Activity calls are given as the source filed them.

For the compound `CC1(C)O[C@H]2O[C@@H]3COB(c4cccc(/N=C/c5cc(Br)ccc5O)c4)O[C@@H]3[C@H]2O1`, the zone of inhibition at 100 µg/disc with Staphylococcus aureus [1] turned out to be 13 mm; in the assay with Salmonella paratyphi [4] it was 14 mm; in the assay with Salmonella typhi [6], 24 mm; in the assay with Aspergillus fumigatus [7], 0 mm; with Micrococcus luteus [8], 22 mm; with Klebsiella pneumoniae [9] it was 21 mm. Also, the zone of inhibition at 100 µg/disc turned out to be 21 mm in the assay on Streptococcus mutans [12] and 18 mm with Candida albicans [13]. The MIC against Klebsiella pneumoniae [2] (MTCC 3384, 24 h) came to 62.5 µg/mL (≈ 132 µM); in the assay with Staphylococcus aureus [3] (MTCC 3160, 24 h), 125 µg/mL (≈ 264 µM); against Aspergillus fumigatus [5] (MTCC 343, 48 h), 250 µg/mL (≈ 527 µM); in the assay on Candida albicans [10] (MTCC 3017, 48 h), 62.5 µg/mL (≈ 132 µM); against Micrococcus luteus [11] (MTCC 106, 24 h) it was 31.2 µg/mL (≈ 65.9 µM); against Salmonella paratyphi [14] (Salmonella enterica), 62.5 µg/mL (≈ 132 µM). The minimal inhibitory concentration (MIC) in the assay on Streptococcus mutans [15] (MTCC 497, 24 h) is 62.5 µg/mL (≈ 132 µM); against Salmonella typhi [16] (Salmonella enterica) it was 31.2 µg/mL (≈ 65.9 µM).

Take `CC1(C)O[C@H]2O[C@@H]3COB(c4cccc(/N=C/c5ccc6ccccc6c5O)c4)O[C@@H]3[C@H]2O1`: the zone of inhibition at 100 µg/disc with Staphylococcus aureus [1] is 13 mm; in the assay on Salmonella paratyphi [4], 13 mm; in the assay with Salmonella typhi [6] it was 23 mm; with Aspergillus fumigatus [7], 33 mm; with Micrococcus luteus [8], 17 mm; in the assay with Klebsiella pneumoniae [9] it was 19 mm. The figures for the zone of inhibition at 100 µg/disc in the assay with Streptococcus mutans [12] and in the assay on Candida albicans [13] were 17 mm and 19 mm, respectively. Moreover, the MIC against Klebsiella pneumoniae [2] (MTCC 3384, 24 h) came out at 62.5 µg/mL (≈ 140 µM); with Staphylococcus aureus [3] (MTCC 3160, 24 h), 125 µg/mL (≈ 281 µM); in the assay on Aspergillus fumigatus [5] (MTCC 343, 48 h), 31.2 µg/mL (≈ 70.2 µM); in the assay on Candida albicans [10] (MTCC 3017, 48 h) it was 62.5 µg/mL (≈ 140 µM); with Micrococcus luteus [11] (MTCC 106, 24 h), 62.5 µg/mL (≈ 140 µM); against Salmonella paratyphi [14] (Salmonella enterica), 125 µg/mL (≈ 281 µM). For the same compound, the MIC in the assay with Streptococcus mutans [15] (MTCC 497, 24 h) was found to be 125 µg/mL (≈ 281 µM); in the assay on Salmonella typhi [16] (Salmonella enterica), 62.5 µg/mL (≈ 140 µM).

In the case of `CC1(C)O[C@H]2O[C@@H]3COC(c4cccc(/C=N/c5ccc(F)cc5)c4)O[C@@H]3[C@H]2O1` (some centres not stated), the zone of inhibition at 100 µg/disc turned out to be 7 mm in the assay on Staphylococcus aureus [1]; 0 mm with Salmonella paratyphi [4]; 0 mm in the assay on Salmonella typhi [6]; 0 mm in the assay with Aspergillus fumigatus [7]; 0 mm in the assay on Micrococcus luteus [8]; 0 mm in the assay with Klebsiella pneumoniae [9]. Moreover, the zone of inhibition at 100 µg/disc in the assay with Streptococcus mutans [12] and in the assay on Candida albicans [13] was 6 mm throughout. Also, the MIC entry in the assay on Klebsiella pneumoniae [2], with Aspergillus fumigatus [5], in the assay on Salmonella paratyphi [14] (setting [17]) and in the assay with Salmonella typhi [16] (setting [18]) was “inactive” in each case. For the same compound, the MIC is 500 µg/mL (≈ 1250 µM) in the assay with Staphylococcus aureus [3] (MTCC 3160, 24 h); 500 µg/mL (≈ 1250 µM) with Candida albicans [10] (MTCC 3017, 48 h); 500 µg/mL (≈ 1250 µM) against Micrococcus luteus [11] (MTCC 106, 24 h); 250 µg/mL (≈ 626 µM) in the assay on Streptococcus mutans [15] (MTCC 497, 24 h).

As for `COc1ccc(/N=C/c2cccc(B3OC[C@H]4O[C@@H]5OC(C)(C)O[C@@H]5[C@H]4O3)c2)cc1`, the zone of inhibition at 100 µg/disc in the assay on Staphylococcus aureus [1] was 0 mm; with Salmonella paratyphi [4], 21 mm; in the assay on Salmonella typhi [6] it was 25 mm; with Aspergillus fumigatus [7], 0 mm; in the assay on Micrococcus luteus [8] it was 12 mm; with Klebsiella pneumoniae [9], 18 mm. The zone of inhibition at 100 µg/disc with Streptococcus mutans [12] was 17 mm; with Candida albicans [13], 16 mm. Moreover, the MIC in the assay on Klebsiella pneumoniae [2] (MTCC 3384, 24 h) amounted to 62.5 µg/mL (≈ 153 µM); with Staphylococcus aureus [3] (MTCC 3160, 24 h), 500 µg/mL (≈ 1220 µM); against Aspergillus fumigatus [5] (MTCC 343, 48 h), 500 µg/mL (≈ 1220 µM); against Candida albicans [10] (MTCC 3017, 48 h), 125 µg/mL (≈ 305 µM); with Micrococcus luteus [11] (MTCC 106, 24 h), 250 µg/mL (≈ 611 µM); against Salmonella paratyphi [14] (Salmonella enterica), 62.5 µg/mL (≈ 153 µM). Besides, the MIC is 125 µg/mL (≈ 305 µM) in the assay on Streptococcus mutans [15] (MTCC 497, 24 h) and 31.2 µg/mL (≈ 76.4 µM) in the assay on Salmonella typhi [16] (Salmonella enterica).

Regarding `CC1(C)O[C@H]2O[C@@H]3COB(c4ccc(/C=N/c5ccc(Cl)cc5)cc4)O[C@@H]3[C@H]2O1`, the zone of inhibition at 100 µg/disc turned out to be 16 mm with Staphylococcus aureus [1]; 13 mm in the assay with Salmonella paratyphi [4]; 22 mm with Salmonella typhi [6]; 0 mm in the assay on Aspergillus fumigatus [7]; 13 mm in the assay with Micrococcus luteus [8]; 24 mm in the assay on Klebsiella pneumoniae [9]. Besides, the zone of inhibition at 100 µg/disc was found to be 22 mm in the assay with Streptococcus mutans [12] and 11 mm with Candida albicans [13]. The MIC against Klebsiella pneumoniae [2] (MTCC 3384, 24 h) is 62.5 µg/mL (≈ 151 µM); with Staphylococcus aureus [3] (MTCC 3160, 24 h), 125 µg/mL (≈ 302 µM); against Aspergillus fumigatus [5] (MTCC 343, 48 h) it was 500 µg/mL (≈ 1210 µM); with Candida albicans [10] (MTCC 3017, 48 h) it was 250 µg/mL (≈ 604 µM); in the assay on Micrococcus luteus [11] (MTCC 106, 24 h), 125 µg/mL (≈ 302 µM); against Salmonella paratyphi [14] (Salmonella enterica), 125 µg/mL (≈ 302 µM). Also, the minimal inhibitory concentration (MIC) against Streptococcus mutans [15] (MTCC 497, 24 h) is 62.5 µg/mL (≈ 151 µM); with Salmonella typhi [16] (Salmonella enterica), 62.5 µg/mL (≈ 151 µM).

For `CC1(C)O[C@H]2O[C@@H]3COB(c4ccccc4F)O[C@@H]3[C@H]2O1`, the zone of inhibition at 100 µg/disc was 11 mm in the assay with Staphylococcus aureus [1]; 9 mm in the assay with Salmonella paratyphi [4]; 11 mm in the assay with Salmonella typhi [6]; 9 mm with Aspergillus fumigatus [7]; 8 mm in the assay with Micrococcus luteus [8]; 12 mm with Klebsiella pneumoniae [9]. For the same compound, the zone of inhibition at 100 µg/disc in the assay with Streptococcus mutans [12] was 12 mm; in the assay on Candida albicans [13], 11 mm. The MIC with Klebsiella pneumoniae [2] (MTCC 3384, 24 h) is 250 µg/mL (≈ 850 µM); with Staphylococcus aureus [3] (MTCC 3160, 24 h), 125 µg/mL (≈ 425 µM); against Aspergillus fumigatus [5] (MTCC 343, 48 h) it was 500 µg/mL (≈ 1700 µM); against Candida albicans [10] (MTCC 3017, 48 h) it was 500 µg/mL (≈ 1700 µM); with Micrococcus luteus [11] (MTCC 106, 24 h), 250 µg/mL (≈ 850 µM); against Salmonella paratyphi [14] (Salmonella enterica), 125 µg/mL (≈ 425 µM). In addition, the MIC is 125 µg/mL (≈ 425 µM) with Streptococcus mutans [15] (MTCC 497, 24 h) and 250 µg/mL (≈ 850 µM) in the assay with Salmonella typhi [16] (Salmonella enterica).

With `CC1(C)O[C@H]2O[C@@H]3COC(c4ccc(C=O)cc4)O[C@@H]3[C@H]2O1` (some centres not stated), the zone of inhibition at 100 µg/disc in the assay with Staphylococcus aureus [1], in the assay with Salmonella paratyphi [4], in the assay with Salmonella typhi [6], in the assay on Aspergillus fumigatus [7], in the assay on Micrococcus luteus [8] and with Klebsiella pneumoniae [9] was 0 mm in each case. Further, the zone of inhibition at 100 µg/disc in the assay with Streptococcus mutans [12] and in the assay on Candida albicans [13] was 0 mm each time. For the same compound, the MIC entry in the assay with Klebsiella pneumoniae [2], in the assay on Staphylococcus aureus [3], in the assay on Aspergillus fumigatus [5], in the assay on Candida albicans [10], with Micrococcus luteus [11] and in the assay with Salmonella paratyphi [14] (setting [17]) was “inactive” throughout. The MIC entry in the assay with Streptococcus mutans [15] and in the assay with Salmonella typhi [16] (setting [18]) was “inactive” throughout.

The record behind these values is ChEMBL document CHEMBL3822364, “Synthesis, characterization and antimicrobial activity of novel Schiff base tethered boronate esters of 1,2-O-isopropylidene-α-d-xylofuranose” (2016).
